Data taken from PMC8742467, “Therapeutical interference with the epigenetic landscape of germ cell tumors: a comparative drug study and new mechanistical insights” (Clinical Epigenetics, 2022).

System: histone modifications in 2102EP cells
Assay: Mass spectrometry analysis of histone modifications (Mod Spec)
Format: cell-based, Human
Summary of the method: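 2102EP cells were treated for 16 h with EC50 concentrations of Quisinostat, JIB-04, Chaetocin, MZ-1, LP99, PRT4165 or GSK343, with DMSO as solvent control. After trypsin harvest, histones were extracted and analysed by mass spectrometry. Raw data were converted to z-scores.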

[1] = 2102EP cells, Mod Spec raw data
[2] = 2102EP, EC50, 16 h, vs solvent control

O=C1C(=Cc2cccnc2)C(=O)c2ccccc21 [PRT4165]
H1.4: K25AC, % of peptide pool [1]: 0.05173% | H1.4: K25ME1, % of peptide pool [1]: 2.298% | H1.4: K25ME2, % of peptide pool [1]: 0.1042% | H1.4: K25ME3, % of peptide pool [1]: 0.02395% | H1.4: K25UN, % of peptide pool [1]: 97.522% | H2A1: K13AC, % of peptide pool [1]: 0.008344% | H2A1: K13UN, % of peptide pool [1]: 99.9917% | H2A1: K15AC, % of peptide pool [1]: 0.002728% | H2A1: K15UB, % of peptide pool [1]: 0% | H2A1: K15UN, % of peptide pool [1]: 99.9973% | H2A3: K13AC, % of peptide pool [1]: 0.03698% | H2A3: K13UN, % of peptide pool [1]: 99.963% | H2A3: K15AC, % of peptide pool [1]: 0.08285% | H2A3: K15UB, % of peptide pool [1]: 0% | H2A3: K15UN, % of peptide pool [1]: 99.9171% | H2A: K5AC, % of peptide pool [1]: 15.4182% | H2A: K5UN, % of peptide pool [1]: 84.5818% | H2A: K9AC, % of peptide pool [1]: 1.95% | H2A: K9UN, % of peptide pool [1]: 98.0496% | H2A: K36AC, % of peptide pool [1]: 0.05592% | H2A: K36UN, % of peptide pool [1]: 99.9441% | H3: K9AC, % of peptide pool [1]: 0.7791% | H3: K9ME1, % of peptide pool [1]: 33.7783% | H3: K9ME2, % of peptide pool [1]: 30.8531% | H3: K9ME3, % of peptide pool [1]: 3.071% | H3: K9UN, % of peptide pool [1]: 31.5183% | H3: K14AC, % of peptide pool [1]: 32.0961% | H3: K14UN, % of peptide pool [1]: 67.9039% | H3: K18AC, % of peptide pool [1]: 12.9985% | H3: K18ME1, % of peptide pool [1]: 0.1614% | H3: K18UN, % of peptide pool [1]: 86.8401% | H3: K23AC, % of peptide pool [1]: 19.4498% | H3: K23ME1, % of peptide pool [1]: 0.05975% | H3: K23UN, % of peptide pool [1]: 80.4904% | H3: K56AC, % of peptide pool [1]: 0.4117% | H3: K56ME1, % of peptide pool [1]: 1.0746% | H3: K56UN, % of peptide pool [1]: 98.5137% | H3: K64AC, % of peptide pool [1]: 0.02258% | H3: K64UN, % of peptide pool [1]: 99.9774% | H3: K79AC, % of peptide pool [1]: 3.311% | H3: K79ME1, % of peptide pool [1]: 23.508% | H3: K79ME2, % of peptide pool [1]: 7.992% | H3: K79ME3, % of peptide pool [1]: 11.4561% | H3: K79UN, % of peptide pool [1]: 53.7325% | H3: K122AC, % of peptide pool [1]: 0.1739% | H3: K122UN, % of peptide pool [1]: 99.8261% | H3: Q19ME1, % of peptide pool [1]: 0.01555% | H3: Q19UN, % of peptide pool [1]: 99.9844% | H3: Q55ME1, % of peptide pool [1]: 0.5287% | H3: Q55UN, % of peptide pool [1]: 99.4713% | H3: R42ME2, % of peptide pool [1]: 2.978% | H3: R42UN, % of peptide pool [1]: 97.0223% | H3: R49ME2, % of peptide pool [1]: 9.973% | H3: R49UN, % of peptide pool [1]: 90.0271% | H3R2UN: K4AC, % of peptide pool [1]: 0.1986% | H3R2UN: K4ME1, % of peptide pool [1]: 18.1935% | H3R2UN: K4ME2, % of peptide pool [1]: 0.2356% | H3R2UN: K4ME3, % of peptide pool [1]: 0.09008% | H3R2UN: K4UN, % of peptide pool [1]: 81.2822% | H3R2UN: Q5ME1, % of peptide pool [1]: 0.1103% | H3R2UN: Q5UN, % of peptide pool [1]: 99.8897% | H3.1: K27AC, % of peptide pool [1]: 2.4319% | H3.1: K27ME1, % of peptide pool [1]: 48.1679% | H3.1: K27ME2, % of peptide pool [1]: 21.916% | H3.1: K27ME3, % of peptide pool [1]: 3.429% | H3.1: K27UN, % of peptide pool [1]: 24.0551% | H3.1: K36AC, % of peptide pool [1]: 0.4356% | H3.1: K36ME1, % of peptide pool [1]: 14.9062% | H3.1: K36ME2, % of peptide pool [1]: 45.0841% | H3.1: K36ME3, % of peptide pool [1]: 22.3724% | H3.1: K36UN, % of peptide pool [1]: 17.2016% | H3.3: K27AC, % of peptide pool [1]: 6.482% | H3.3: K27M, % of peptide pool [1]: 0% | H3.3: K27ME1, % of peptide pool [1]: 46.8114% | H3.3: K27ME2, % of peptide pool [1]: 16.0905% | H3.3: K27ME3, % of peptide pool [1]: 6.139% | H3.3: K27UN, % of peptide pool [1]: 24.4778% | H3.3: K36AC, % of peptide pool [1]: 3.39% | H3.3: K36ME1, % of peptide pool [1]: 13.3786% | H3.3: K36ME2, % of peptide pool [1]: 45.5834% | H3.3: K36ME3, % of peptide pool [1]: 23.7392% | H3.3: K36UN, % of peptide pool [1]: 13.9089% | H4: K5AC, % of peptide pool [1]: 8.039% | H4: K5UN, % of peptide pool [1]: 91.9614% | H4: K8AC, % of peptide pool [1]: 12.3075% | H4: K8UN, % of peptide pool [1]: 87.6925% | H4: K12AC, % of peptide pool (2102EP cells, Mod Spec raw data, histone H4 K12 acetylated): 6.955 % of peptide pool | H4: K12UN, % of peptide pool (2102EP cells, Mod Spec raw data, histone H4 K12 unmodified): 93.045 % of peptide pool | H4: K16AC, % of peptide pool (2102EP cells, Mod Spec raw data, histone H4 K16 acetylated): 45.5782 % of peptide pool | H4: K16UN, % of peptide pool (2102EP cells, Mod Spec raw data, histone H4 K16 unmodified): 54.4218 % of peptide pool | H4: K20AC, % of peptide pool (2102EP cells, Mod Spec raw data, histone H4 K20 acetylated): 32.1833 % of peptide pool | H4: K20ME2, % of peptide pool (2102EP cells, Mod Spec raw data, histone H4 K20 dimethylated): 44.5336 % of peptide pool | H4: K20ME1, % of peptide pool (2102EP cells, Mod Spec raw data, histone H4 K20 monomethylated): 4.33 % of peptide pool | H4: K20ME3, % of peptide pool (2102EP cells, Mod Spec raw data, histone H4 K20 trimethylated): 2.102 % of peptide pool | H4: K20UN, % of peptide pool (2102EP cells, Mod Spec raw data, histone H4 K20 unmodified): 16.8517 % of peptide pool | change of histone modifications of the expected mode of action (Mod Spec) [2]: decreased ubiquitination (ub) of the target histone H2AK119 [50] could not be detected | off-target changes of histone modifications (Mod Spec) [2]: increase of H3K36me3, H4K20ac, H3K79me1/ac
